Among the data in patent US9351955B2, “Compounds and pharmaceutical compositions thereof for the treatment of cystic fibrosis” (Galapagos NV, priority 2013, dated 2016) are EC50 values, retold here.

T1 sequence (P13569 with tags, fused parts or gaps DEL508-508): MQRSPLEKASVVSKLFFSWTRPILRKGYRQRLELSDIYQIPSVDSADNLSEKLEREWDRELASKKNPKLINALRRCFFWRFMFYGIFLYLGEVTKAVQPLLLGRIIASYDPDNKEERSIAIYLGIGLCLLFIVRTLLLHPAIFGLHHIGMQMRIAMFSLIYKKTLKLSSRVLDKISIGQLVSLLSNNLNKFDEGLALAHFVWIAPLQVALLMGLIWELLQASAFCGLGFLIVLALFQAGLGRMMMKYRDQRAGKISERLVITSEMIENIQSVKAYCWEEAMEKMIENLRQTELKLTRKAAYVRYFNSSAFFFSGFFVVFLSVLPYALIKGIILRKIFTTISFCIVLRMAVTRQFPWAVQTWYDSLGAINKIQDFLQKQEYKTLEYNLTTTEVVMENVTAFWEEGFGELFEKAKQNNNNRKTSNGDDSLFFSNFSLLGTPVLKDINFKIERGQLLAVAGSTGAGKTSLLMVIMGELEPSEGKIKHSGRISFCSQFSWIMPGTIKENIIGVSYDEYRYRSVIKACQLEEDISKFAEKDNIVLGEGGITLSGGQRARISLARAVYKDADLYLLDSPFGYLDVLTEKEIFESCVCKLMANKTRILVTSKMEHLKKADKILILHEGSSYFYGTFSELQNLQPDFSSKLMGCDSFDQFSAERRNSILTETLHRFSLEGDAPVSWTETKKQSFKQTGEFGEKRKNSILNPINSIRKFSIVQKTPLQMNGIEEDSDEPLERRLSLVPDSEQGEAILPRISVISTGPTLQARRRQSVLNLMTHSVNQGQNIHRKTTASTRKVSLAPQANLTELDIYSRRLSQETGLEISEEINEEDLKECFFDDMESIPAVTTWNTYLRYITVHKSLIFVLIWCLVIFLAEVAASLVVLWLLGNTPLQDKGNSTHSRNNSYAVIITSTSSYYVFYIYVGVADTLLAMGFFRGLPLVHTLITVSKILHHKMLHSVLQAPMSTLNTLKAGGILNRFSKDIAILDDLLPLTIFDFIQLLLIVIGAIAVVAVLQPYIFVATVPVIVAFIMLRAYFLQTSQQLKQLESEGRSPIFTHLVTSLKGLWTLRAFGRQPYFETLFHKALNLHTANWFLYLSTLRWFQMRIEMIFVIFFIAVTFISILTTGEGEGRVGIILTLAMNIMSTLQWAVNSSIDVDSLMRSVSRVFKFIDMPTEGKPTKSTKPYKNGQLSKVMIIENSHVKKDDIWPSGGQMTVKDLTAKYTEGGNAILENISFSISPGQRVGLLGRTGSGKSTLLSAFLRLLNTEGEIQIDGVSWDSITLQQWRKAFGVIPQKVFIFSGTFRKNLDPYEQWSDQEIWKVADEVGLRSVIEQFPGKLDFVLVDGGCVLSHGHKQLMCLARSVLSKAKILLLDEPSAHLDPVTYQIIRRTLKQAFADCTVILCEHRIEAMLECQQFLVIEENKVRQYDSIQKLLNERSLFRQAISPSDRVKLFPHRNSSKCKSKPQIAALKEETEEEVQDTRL

The test concerns the target T1, CFTR ΔF508 mutant (Homo sapiens, UniProt P13569, DEL508-508).
T1 construct: expressed in transfected cells; host or cells: CFBE41o- (adenoviral transduction)
Nature of the test: YFP-halide influx assay for the CFTR-ΔF508 mutation (384 well, CFBE41o- cells, FDSS/μCell). It is filed as cell-based. Particulars: forskolin 10.67 μM, fluorescence after 36 seconds, read-out: EC50 measured by YFP-halide influx assay for the CFTR-ΔF508. From the text:
6.2. YFP-Halide Influx Assay for the CFTR-ΔF508 Mutation
The YFP halide influx assay measures the functionality of the cystic fibrosis Transmembrane Conductance regulator (CFTR) channels in the cystic fibrosis bronchial epithelium cell line CFBE41o-. The assay is used to evaluate the capacity of compounds to increase the open probability of existing CFTR channels in the membrane. It makes use of the observation that the yellow fluorescent protein (YFP) variant YFP H148Q, I152L has its fluorescence substantially quenched by halide ions like Cl— and I— (Galietta et al., 2001; Nagai et al., 2002).
For this purpose, CFBE410-cells are seeded in 384 well plates (3000 CFBE cells/well). One day after seeding, the CFBE cells are transduced with adenoviral vectors that direct the expression of the CFTR ΔF508 mutant and of the YFP reporter. Cells are incubated at 27° C., 5% CO2 for 24 hours so as to allow for the proper folding and migration to the membrane of the CFTR channel or treated with a CFTR modulator during 24 h at 37° C.
The I— induced quenching of fluorescence is recorded […] immediately after injection of I— for 2 min on an FDSS/μCell (Hamamatsu). The capacity of a compound to increase the channel opening is directly correlated with the decrease in fluorescence, and is expressed as (1−(fluorescence after 36 seconds (F)/fluorescence before injection (F0))) and an EC50 can be derived from a (1−F/F0) vs compound concentration plot.
For the compound `C[C@H](O)C(=O)Nc1sc2c(c1C(N)=O)CC(C)(C)OC2(C)C` [Compound 153, 2-[[(2S)-2-hydroxypropanoyl]amino]-5,5,7,7-tetramethyl-4H-thieno[2,3-c]pyran-3-carboxamide], the 50% effective concentration (EC50) is 33.9 nM.

As for `CCC(CO)C(=O)Nc1sc2c(c1C(N)=O)CC(C)(C)OC2(C)C` (stereo not shown) [Compound 86, 2-[2-(hydroxymethyl)butanoylamino]-5,5,7,7-tetramethyl-4H-thieno[2,3-c]pyran-3-carboxamide], the EC50 was determined as 160 nM.

With `CC1(C)Cc2c(sc(NC(=O)C(CO)C(C)(C)C)c2C(N)=O)C(C)(C)O1` (stereo not shown) [Compound 89, 2-[[2-(hydroxymethyl)-3,3-dimethyl-butanoyl]amino]-5,5,7,7-tetramethyl-4H-thieno[2,3-c]pyran-3-carboxamide], the half-maximal effective concentration (EC50) was 313 nM.

Take `CC1(C)Cc2c(sc(NC(=O)[C@H]3C[C@@H]3CO)c2C(N)=O)C(C)(C)O1` [Compound 83, 2-[[(1S,2S)-2-(hydroxymethyl)cyclopropanecarbonyl]amino]-5,5,7,7-tetramethyl-4H-thieno[2,3-c]pyran-3-carboxamide]: the EC50 is 644 nM.

`CC1(C)Cc2c(sc(NC(=O)C3(C)COC3)c2C(N)=O)C(C)(C)O1` [Compound 147, 5,5,7,7-tetramethyl-2-[(3-methyloxetane-3-carbonyl)amino]-4H-thieno[2,3-c]pyran-3-carboxamide]: the 50% effective concentration (EC50) is 169 nM.

Turning to `Cc1oncc1C(=O)Nc1sc2c(c1C(N)=O)CC(C)(C)OC2(C)C` [Compound 146, N-(3-carbamoyl-5,5,7,7-tetramethyl-4H-thieno[2,3-c]pyran-2-yl)-5-methyl-isoxazole-4-carboxamide], the EC50 was 202 nM.

For the compound `CC1(C)Cc2c(sc(NC(=O)C3CC3F)c2C(N)=O)C(C)(C)O1` (single isomer, unassigned) [Compound 44, Cis-2-[[2-fluorocyclopropanecarbonyl]amino]-5,5,7,7-tetramethyl-4H-thieno[2,3-c]pyran-3-carboxamide], the EC50 worked out at 276 nM.

Turning to `COCC(C)(O)C(=O)Nc1sc2c(c1C(N)=O)CC(C)(C)OC2(C)C` (stereo not shown) [Compound 155, 2-[(2-hydroxy-3-methoxy-2-methyl-propanoyl)amino]-5,5,7,7-tetramethyl-4H-thieno[2,3-c]pyran-3-carboxamide], the EC50 was determined as 71.5 nM.

Turning to `CC1(C)Cc2c(sc(NC(=O)C3CC3F)c2C(N)=O)C(C)(C)O1` (single isomer, unassigned) [Compound 43, Cis-2-[[2-fluorocyclopropanecarbonyl]amino]-5,5,7,7-tetramethyl-4H-thieno[2,3-c]pyran-3-carboxamide], the half-maximal effective concentration (EC50) was 495 nM.

In the case of `CCOc1cc(C(=O)Nc2sc3c(c2C(N)=O)CC(C)(C)OC3(C)C)n[nH]1` [Compound 54, 5-Ethoxy-1H-pyrazole-3-carboxylic acid (3-carbamoyl-5,5,7,7-tetramethyl-4,7-dihydro-5H-thieno[2,3-c]pyran-2-yl)-amide], the EC50 was 8.51 nM.

Regarding `CC1(C)Cc2c(sc(NC(=O)C3CCOC3)c2C(N)=O)C(C)(C)O1` (stereo not shown) [Compound 163, 5,5,7,7-tetramethyl-2-(tetrahydrofuran-3-carbonylamino)-4H-thieno[2,3-c]pyran-3-carboxamide], the EC50 amounted to 636 nM.

For the compound `CC(O)CC(=O)Nc1sc2c(c1C(N)=O)CC(C)(C)OC2(C)C` (stereo not shown) [Compound 58, 2-(3-hydroxybutanoylamino)-5,5,7,7-tetramethyl-4H-thieno[2,3-c]pyran-3-carboxamide], the half-maximal effective concentration (EC50) worked out at 178 nM.

In the case of `CC1(C)Cc2c(sc(NC(=O)C3CCC(=O)N3)c2C(N)=O)C(C)(C)O1` (stereo not shown) [Compound 107, N-(3-carbamoyl-5,5,7,7-tetramethyl-4H-thieno[2,3-c]pyran-2-yl)-5-oxo-pyrrolidine-2-carboxamide], the EC50 is 387 nM.

As for `Cc1cc2nnc(C(=O)Nc3sc4c(c3C(N)=O)CC(C)(C)OC4(C)C)c(C)n2n1` [Compound 149, N-(3-carbamoyl-5,5,7,7-tetramethyl-4H-thieno[2,3-c]pyran-2-yl)-4,7-dimethyl-pyrazolo[5,1-c][1,2,4]triazine-3-carboxamide], the EC50 stood at 346 nM.

In the case of `Cn1ncc(C(=O)Nc2sc3c(c2C(N)=O)CC(C)(C)OC3(C)C)c1C(F)F` [Compound 118, N-(3-carbamoyl-5,5,7,7-tetramethyl-4H-thieno[2,3-c]pyran-2-yl)-5-(difluoromethyl)-1-methyl-pyrazole-4-carboxamide], the EC50 was found to be 303 nM.

Regarding `Cc1csc(C(=O)Nc2sc3c(c2C(N)=O)CC(C)(C)OC3(C)C)n1` [Compound 131, N-(3-carbamoyl-5,5,7,7-tetramethyl-4H-thieno[2,3-c]pyran-2-yl)-4-methyl-thiazole-2-carboxamide], the EC50 is 168 nM.

As for `COCC(C)(O)C(=O)Nc1sc2c(c1C(N)=O)CC(C)(C)OC2(C)C` (single isomer, unassigned) [Compound 165, 2-[[2-hydroxy-3-methoxy-2-methyl-propanoyl]amino]-5,5,7,7-tetramethyl-4H-thieno[2,3-c]pyran-3-carboxamide], the EC50 was determined as 145 nM.

Regarding `COC(C)(C)C(=O)Nc1sc2c(c1C(N)=O)CC(C)(C)OC2(C)C` [Compound 164, 2-[(2-methoxy-2-methyl-propanoyl)amino]-5,5,7,7-tetramethyl-4H-thieno[2,3-c]pyran-3-carboxamide], the concentration giving a half-maximal response (EC50) came to 646 nM.

For the compound `CC1(C)Cc2c(sc(NC(=O)C3CCOCC3)c2C(N)=O)C(C)(C)O1` [Compound 158, 5,5,7,7-tetramethyl-2-(tetrahydropyran-4-carbonylamino)-4H-thieno[2,3-c]pyran-3-carboxamide], the concentration for a half-maximal effect (EC50) stood at 301 nM.

For the compound `CC1(C)Cc2c(sc(NC(=O)C3(CO)CC3(C)C)c2C(N)=O)C(C)(C)O1` (stereo not shown) [Compound 91, 2-[[1-(hydroxymethyl)-2,2-dimethyl-cyclopropanecarbonyl]amino]-5,5,7,7-tetramethyl-4H-thieno[2,3-c]pyran-3-carboxamide], the 50% effective concentration (EC50) came to 64.1 nM.

For `CC1(C)Cc2c(sc(NC(=O)c3cnc4c(c3)OCCO4)c2C(N)=O)C(C)(C)O1` [Compound 145, N-(3-carbamoyl-5,5,7,7-tetramethyl-4H-thieno[2,3-c]pyran-2-yl)-2,3-dihydro-[1,4]dioxino[2,3-b]pyridine-7-carboxamide], the EC50 is 154 nM.

With `CC(C)(O)CC(=O)Nc1sc2c(c1C(N)=O)CC(C)(C)OC2(C)C` [Compound 56, 2-[(3-hydroxy-3-methyl-butanoyl)amino]-5,5,7,7-tetramethyl-4H-thieno[2,3-c]pyran-3-carboxamide], the concentration giving a half-maximal response (EC50) was found to be 79.3 nM.

As to `CC1(C)Cc2c(sc(NC(=O)c3cnccn3)c2C(N)=O)C(C)(C)O1` [Compound 138, N-(3-carbamoyl-5,5,7,7-tetramethyl-4H-thieno[2,3-c]pyran-2-yl)pyrazine-2-carboxamide], the half-maximal effective concentration (EC50) worked out at 52.2 nM.

For `Cc1noc(C)c1C(=O)Nc1sc2c(c1C(N)=O)CC(C)(C)OC2(C)C` [Compound 140, N-(3-carbamoyl-5,5,7,7-tetramethyl-4H-thieno[2,3-c]pyran-2-yl)-3,5-dimethyl-isoxazole-4-carboxamide], the concentration giving a half-maximal response (EC50) was 144 nM.

`CC1(C)Cc2c(sc(NC(=O)c3n[nH]c4ncccc34)c2C(N)=O)C(C)(C)O1` [Compound 157, N-(3-carbamoyl-5,5,7,7-tetramethyl-4H-thieno[2,3-c]pyran-2-yl)-1H-pyrazolo[3,4-b]pyridine-3-carboxamide]: the EC50 turned out to be 33.1 nM.
